SMILES strings stand for the structures.

The IC50 is the concentration at which inhibition is half-maximal. A lower IC50 goes with inhibition by little substance.

Chain of IRAK4 (Q9NWZ3 whole entry): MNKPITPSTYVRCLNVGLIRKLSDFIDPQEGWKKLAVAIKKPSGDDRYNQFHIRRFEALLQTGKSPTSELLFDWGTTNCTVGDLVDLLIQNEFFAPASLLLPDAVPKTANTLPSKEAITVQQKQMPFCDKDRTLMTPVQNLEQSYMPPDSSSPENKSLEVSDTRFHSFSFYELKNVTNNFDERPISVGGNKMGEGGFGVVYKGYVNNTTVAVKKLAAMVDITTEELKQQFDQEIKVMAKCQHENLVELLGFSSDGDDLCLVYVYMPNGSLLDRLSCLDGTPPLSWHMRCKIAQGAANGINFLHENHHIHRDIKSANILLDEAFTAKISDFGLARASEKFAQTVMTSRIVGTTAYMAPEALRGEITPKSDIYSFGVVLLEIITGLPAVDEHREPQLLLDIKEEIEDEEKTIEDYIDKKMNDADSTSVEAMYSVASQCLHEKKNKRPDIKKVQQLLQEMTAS

The assay has as its target IRAK4 (Homo sapiens (Human), UniProt Q9NWZ3). The assay can be described thus: In vitro IRAK4 phosphorylation activity assay. Format: biochemical. The conditions noted are these: [γ-33P]-ATP, myelin basic protein substrate, 40 minutes at room temperature; categories. The method, then:
In vitro IRAK4 analysis was performed using N-(1H-imidazol-2-yl)benzamide compounds according to the present invention. All compounds were prepared by dissolving in DMSO. N-(1H-imidazol-2-yl)benzamide compound according to the present invention and other elements for the reaction were added to an assay well. In the standard Kinase Profiler service the preincubation step between the N-(1H-imidazol-2-yl)benzamide compound and kinase was not performed before the reaction.
To the positive control well, all reactants except for the N-(1H-imidazol-2-yl)benzamide compound according to the present invention were added, and DMSO was added to remove the solvent effect. A known control inhibitor having the following structure was added to the blank wells to inhibit kinase activity and establish a base-line.
IRAK4 was incubated with 8 mM MOPS pH 7.0, 0.2 mM EDTA, 0.33 mg/mL myelin basic protein, 10 mM magnesium acetate and [γ-33P]-ATP (specific activity approx. 500 cpm/pmol, concentration as required). The reaction was initiated by the addition of the MgATP mix. After incubation for 40 minutes at room temperature, the reaction was stopped by the addition of 3% phosphoric acid solution. 10 μL of the reaction was then spotted onto a P30 filtermat and washed three times for 5 minutes in 75 mM phosphoric acid and once in methanol prior to drying and scintillation counting.
The results are shown in Table 26 below, where the phosphorylation activity of IC50 values for IRAK4 is shown in categories (A: <50 nM, B: 50-100 nM, C: >100 nM).
On to `O=C(CCc1cn(-c2ccccc2)c(NC(=O)c2cccc(-c3cn[nH]c3)c2)n1)NN1CCCC1` [Example 27, N-(4-(3-oxo-3-(pyrrolidin-1-ylamino)propyl)-1-phenyl-1H-imidazol-2-yl)-3-(1H-pyrazol-4-yl)benzamide], for which the IC50 is over 0.1 µM. For `O=C(CCCc1cn(-c2ccccc2)c(NC(=O)c2cccc(-c3cnn(C(F)(F)F)c3)c2)n1)NC1CC1` [Example 236, N-(4-(4-(cyclopropylamino)-4-oxobutyl)-1-phenyl-1H-imidazol-2-yl)-3-(1-(trifluoromethyl)-1H-pyrazol-4-yl)benzamide] the value was under 0.05 µM; for `O=C(Nc1nc(CCCCCN2CCCCC2)cn1-c1ccccc1)c1cccc(-c2cn[nH]c2)c1` [Example 118, N-(1-phenyl-4-(5-(piperidin-1-yl)pentyl)-1H-imidazol-2-yl)-3-(1H-pyrazol-4-yl)benzamide], under 0.05 µM; for `C[C@@H]1CCCCN1C(=O)CCCCc1cn(-c2ccccc2)c(NC(=O)c2cccc(-c3cn[nH]c3)c2)n1` [Example 83, (R)—N-(4-(5-(2-methylpiperidin-1-yl)-5-oxopentyl)-1-phenyl-1H-imidazol-2-yl)-3-(1H-pyrazol-4-yl)benzamide], under 0.05 µM. In the case of `O=C(Nc1nc(CCCCCCN2CCCCC2=O)cn1-c1ccccc1)c1cccc(-c2ccc3[nH]ncc3c2)c1` [Example 260, 3-(1H-indazol-5-yl)-N-(4-(6-(2-oxopiperidin-1-yl)hexyl)-1-phenyl-1H-imidazol-2-yl)benzamide], the IC50 was under 0.05 µM. For `CN(C)C1CCN(C(=O)CCCc2cn(-c3ccccc3)c(NC(=O)c3cccc(-c4cnn(C)c4)c3)n2)CC1` [Example 146, N-(4-(4-(4-(dimethylamino)piperidin-1-yl)-4-oxobutyl)-1-phenyl-1H-imidazol-2-yl)-3-(1-methyl-1H-pyrazol-4-yl)benzamide] the value was under 0.05 µM. The compound `Nc1ccc(-c2cccc(C(=O)Nc3nc(CCCCN4CCCC4=O)cn3-c3ccccc3)c2)cn1` [Example 277, 3-(6-aminopyridin-3-yl)-N-(4-(4-(2-oxopyrrolidin-1-yl)butyl)-1-phenyl-1H-imidazol-2-yl)benzamide] had an IC50 of under 0.05 µM.

For the compound `C[C@@H]1CCCCN1C(=O)CCc1cn(-c2ccccc2)c(NC(=O)c2cccc(-c3cn[nH]c3)c2)n1` [Example 30, (R)—N-(4-(3-(2-methylpiperidin-1-yl)-3-oxopropyl)-1-phenyl-1H-imidazol-2-yl)-3-(1H-pyrazol-4-yl)benzamide], the IC50 is under 0.05 µM. Take `Nc1ccc(-c2cccc(C(=O)Nc3nc(CCCCCCN4CCCC4=O)cn3-c3ccccc3)c2)cn1` [Example 276, 3-(6-aminopyridin-3-yl)-N-(4-(6-(2-oxopyrrolidin-1-yl)hexyl)-1-phenyl-1H-imidazol-2-yl)benzamide]: the IC50 was under 0.05 µM. For the compound `O=C(Nc1nc(CCCC(=O)N2CCCCC2)cn1-c1ccccc1)c1cccc(-c2ccc3[nH]ncc3c2)c1` [Example 246, 3-(1H-indazol-5-yl)-N-(4-(4-oxo-4-(piperidin-1-yl)butyl)-1-phenyl-1H-imidazol-2-yl)benzamide], the 50% inhibitory concentration (IC50) is under 0.05 µM.

`O=C(CCCc1cn(-c2ccccc2)c(NC(=O)c2cccc(-c3cnn(C(F)F)c3)c2)n1)NC1CC1` [Example 235, N-(4-(4-(cyclopropylamino)-4-oxobutyl)-1-phenyl-1H-imidazol-2-yl)-3-(1-(difluoromethyl)-1H-pyrazol-4-yl)benzamide] had an IC50 of under 0.05 µM.

For the compound `O=C(CCCCCc1cn(-c2ccccc2)c(NC(=O)c2cccc(-c3ccc4ncsc4c3)c2)n1)NC1CC1` [Example 286, 3-(benzo[d]thiazol-6-yl)-N-(4-(6-(cyclopropylamino)-6-oxohexyl)-1-phenyl-1H-imidazol-2-yl)benzamide], the IC50 was under 0.05 µM. Compound `COC[C@H]1CCCN1NC(=O)CCCCc1cn(-c2ccccc2)c(NC(=O)c2cccc(-c3cn[nH]c3)c2)n1` [Example 85, (R)—N-(4-(5-((2-(methoxymethyl)pyrrolidin-1-yl)amino)-5-oxopentyl)-1-phenyl-1H-imidazol-2-yl)-3-(1H-pyrazol-4-yl)benzamide] displayed an IC50 of under 0.05 µM.

The record behind these values is patent US12534452B2, “N-(1H-imidazol-2-yl)benzamide compound and pharmaceutical composition comprising the same as active ingredient” (KAINOS MEDICINE, INC., priority 2019, dated 2026).
